Measurements reported in US20110257014A1, “1-(Heteroaryl)pyrazol-4-ylacetic acids, processes for their preparation and their use as herbicides and plant growth regulators” (BAYER CROPSCIENCE AG, priority 2009, published 2011).

What was measured:
Test in all cases: Post-emergence herbicidal effect, greenhouse pot test
Format in all cases: in vivo
Conditions in all cases: 0.32 kg of active substance per hectare, rated visually after about 3 weeks
[1] = system: Echinochloa crus galli
Description: (§1) Seeds of monocotyledonous and dicotyledonous weed and crop plants are placed in sandy loam in wood-fiber pots, covered with soil and cultivated in a greenhouse under good growth conditions. 2 to 3 weeks after sowing, the test plants are treated at the one-leaf stage. The compounds (I) according to the invention, formulated in the form of wettable powders (WP), are then applied by spraying as aqueous suspension or emulsion at a water application rate of 600 I/ha (converted) with the addition of 0.2% of wetting agent to the green parts of the plants. After the test plants have been kept in the greenhouse under optimum growth conditions for about 3 weeks, the activity of the preparations is rated visually in comparison to untreated controls (herbicidal activity in percent (%): 100% activity=the plants have died, 0% activity=like control plants).

[2] = system: Abutilon theophrasti
Description: as §1

[3] = system: Alopecurus myosuroides
Description: as §1

[4] = system: Avena fatua
Description: as §1

Measured: herbicidal activity

COC(=O)Cc1c(C)nn(-c2cncn2C)c1-c1ccc(Cl)cc1 [Compound 5-1107, methyl [5-(4-chlorophenyl)-3-methyl-1-(1-methyl-1H-imidazol-5-yl)-1H-pyrazol-4-yl]acetate]
≥ 80%: all assays above
